How the values were obtained:
Assay type in all cases: cell-based
HbF = HbF HiBiT induction assay in HUDEP-2 cells; conditions: HUDEP-2 cells with HiBiT tag in HBG1/2, 72 hours of treatment; area under the dose response curve, higher AUC = greater HbF induction
Protocol: HbF HiBiT induction assay. The HiBiT induction assay for HbF in HUDEP-2 cells was performed as described below. HUDEP-2 cells engineered to express a HiBiT tag in HBG1/2 were maintained at a density of 0.1-1×10^6 cells/ml in StemSpan SFEM II supplemented with 1% penicillin/streptomycin, hSCF (50 ng/mL), erythropoietin (EPO; 3 IU/mL), dexamethasone (DEX; 0.4 μg/mL), and doxycycline hyclate (DOX; 1 μg/mL). The cells were cultured in low adherence flasks, in a humidified incubator, set at 37° C. with 5% CO2. Cell counts and viability were measured by trypan blue exclusion using the Vi-CELL XR cell viability analyzer and the cell growth was consistently maintained in log phase.
Prior to the start of experiments, HbF HiBiT-tagged HUDEP-2 cells were transferred to a 50 mL conical and centrifuged at 500×g for 5 minutes, the supernatant removed, and the pellet washed in 5 mL of 1×PBS. The washed cells were centrifuged again at 500×g for 5 minutes and resuspended in IMDM containing; 1×glutamine, 1×penicillin/streptomycin, holo-transferrin (330 μg/mL), heparin (2 IU/mL), r-human insulin (10 μg/mL), EPO (3 IU/mL), 5% human plasma, hSCF (100 ng/mL) and DOX (1 μg/mL) to a final density of 0.3×10^6 cells/mL. Forty microliters of cell suspension were dispensed into 384-well Low Flange White Flat Bottom Polystyrene TC-treated Microplates containing pre-dispensed compounds, using a VIAFLO 384 liquid hander, and placed in a humidified incubator at 37° C. with 5% CO2. […] After 72 hours of treatment, 40 μL of Nano-Glo HiBiT Lytic Solution (prepared according to manufacturer's instructions) were dispensed into each well using a VIAFLO 384 liquid handler, and the plates were shaken for 20 seconds. Plates were incubated for 20 minutes at room temperature, and the luminescence was read as relative luminescent units using an EnVision plate reader.
Dose response curves were generated, and EC50, Ymax, and then area under the curve (AUC) values were calculated. HbF induction was measured using the calculated area under the curve (AUC) value, with higher AUC values indicative of greater HbF induction relative to lower AUC values.

WIZ = target: T1, WIZ (Homo sapiens, UniProt O95785+Q96SW2); assay: HUDEP-2 WIZ HiBiT degradation assay; conditions: HiBiT-tagged WIZ degradation in HUDEP-2 cells, 24 hours of treatment; read-out: WIZ EC50
T1 construct: HUDEP-2 cells engineered to express a HiBiT tag in either the WIZ (Widely interspaced zinc finger) or ZBTB7A
Protocol: (§1) WIZ Assay and ZBTB7A EC50 Assays. The HiBiT degradation assays for WIZ and ZBTB7A in HUDEP-2 cells were performed as described below. HUDEP-2 cells engineered to express a HiBiT tag in either the WIZ (Widely interspaced zinc finger) or ZBTB7A (Zinc Finger And BTB Domain Containing 7A) proteins were maintained in low attachment flasks in StemSpan SFEM II media supplemented with Penicillin-Streptomycin (50 U/mL), rhSCF (50 ng/mL), rhEPO (3 IU/mL), dexamethasone (0.4 μg/mL) and doxycycline (1 μg/mL). Prior to start of the assay, cell count and viability were measured by trypan blue exclusion using the Vi-cell XR cell viability analyzer.
For the HUDEP-2 WIZ HiBiT assay, cells were transferred to a 50 mL conical and centrifuged at 500 g for five minutes. Cells were resuspended in fresh StemSpan SFEM II media supplemented with Penicillin-Streptomycin (50 U/mL), rhSCF (50 ng/mL), rhEPO (3 IU/mL), dexamethasone (0.4 μg/mL) and doxycycline (1 μg/mL) at a density of 1.0×10^6 cells/ml. Forty microliters of cell suspension was dispensed into 384-well Low Flange White Flat Bottom Polystyrene TC-treated Microplates containing pre-dispensed compounds, using a VIAFLO 384 liquid hander, and placed in a 37° C. incubator with 5% CO2. […] After 24 hours of treatment, 40 μL Nano-Glo HiBiT Lytic Detection System reagent was dispensed into each well using a VIAFLO 384 liquid hander. Plates were incubated for 25 minutes at room temperature and the luminescence was read as relative luminescent units using the EnVision plate reader. EC50 and Y-min values were calculated using curves calculated from dotmatics software after the normalization to the DMSO control of 10 different concentrations: 10, 3.33, 1.11, 0.37, 0.12, 0.04 0.0137, 0.0046, 0.0015 and […] respectively.

ZBTB7A = target: T2, ZBTB7A (Homo sapiens, UniProt O95365+Q96SW2); assay: HUDEP-2 ZBTB7A HiBiT degradation assay; conditions: HiBiT-tagged ZBTB7A degradation in HUDEP-2 cells, 24 hours of treatment; read-out: ZBTB7A EC50
T2 construct: HUDEP-2 cells engineered to express a HiBiT tag in either the WIZ (Widely interspaced zinc finger) or ZBTB7A
Protocol: as §1
For the HUDEP-2 ZBTB7A HiBiT assay, cell count and viability were measured by trypan blue exclusion using the Vi-cell XR cell viability analyzer and the cells were transferred to a 50 mL conical and centrifuged at 500 g for five minutes. Cells were resuspended in fresh IMDM media supplemented with L-Glutamine (1×), Penicillin-Streptomycin (50 U/mL), holo-transferrin (330 μg/mL), heparin (2 IU/mL), r-human Insulin (10 μg/mL), rhEPO (3 IU/mL), rhSCF (100 ng/mL)+Dox (1 μg/mL) and 5% human plasma in low attachment flasks, which were placed in a 37° C. incubator with 5% CO2. After 48 hours, cell count and viability were measured by trypan blue exclusion using the Vi-cell XR cell viability analyzer. The HUDEP-2 ZBTB7A cells were transferred to a 50 mL conical, centrifuged at 500 g for five minutes and resuspended at a density of 1.0×10^6 cells/ml in IMDM media supplemented with L-Glutamine (1×), Penicillin-Streptomycin (50 U/mL), holo-transferrin (330 μg/mL), heparin (2 IU/mL), r-human Insulin (10 μg/mL), rhEPO (3 IU/mL), rhSCF (100 ng/mL)+Dox (1 μg/mL) and 5% human plasma. Forty microliters of cell suspension was dispensed into 384-well Low Flange White Flat Bottom Polystyrene TC-treated Microplates containing pre-dispensed compounds, using a VIAFLO 384 liquid hander, and placed in a 37° C. incubator with 5% CO2. […] After 24 hours of treatment, 40 μL Nano-Glo HiBiT Lytic Detection System reagent was dispensed into each well using a VIAFLO 384 liquid hander. Plates were incubated for 25 minutes at room temperature and the luminescence was read as relative luminescent units using the EnVision plate reader. EC50 and Y-min values were calculated using curves calculated from dotmatics software after the normalization to the DMSO control of 10 different concentrations: 10, 3.33, 1.11, 0.37, 0.12, 0.04 0.0137, 0.0046, 0.0015 and […] respectively.

T2 sequence (O95365 whole entry): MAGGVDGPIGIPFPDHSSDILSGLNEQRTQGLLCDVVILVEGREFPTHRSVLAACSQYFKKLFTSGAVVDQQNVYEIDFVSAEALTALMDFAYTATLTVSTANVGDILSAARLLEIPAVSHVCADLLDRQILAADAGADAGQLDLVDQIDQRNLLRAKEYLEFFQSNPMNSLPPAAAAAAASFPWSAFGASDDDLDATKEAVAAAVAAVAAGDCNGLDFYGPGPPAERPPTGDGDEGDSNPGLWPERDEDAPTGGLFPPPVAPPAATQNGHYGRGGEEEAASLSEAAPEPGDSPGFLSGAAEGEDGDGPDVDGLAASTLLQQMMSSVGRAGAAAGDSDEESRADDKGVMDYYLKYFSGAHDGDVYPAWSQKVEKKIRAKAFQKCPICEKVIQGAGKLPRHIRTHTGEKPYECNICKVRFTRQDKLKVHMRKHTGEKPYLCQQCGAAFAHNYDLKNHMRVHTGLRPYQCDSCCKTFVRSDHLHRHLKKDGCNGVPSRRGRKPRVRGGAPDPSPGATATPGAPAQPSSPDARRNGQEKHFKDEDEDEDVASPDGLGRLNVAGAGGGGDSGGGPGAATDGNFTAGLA
T2 sequence (Q96SW2 whole entry): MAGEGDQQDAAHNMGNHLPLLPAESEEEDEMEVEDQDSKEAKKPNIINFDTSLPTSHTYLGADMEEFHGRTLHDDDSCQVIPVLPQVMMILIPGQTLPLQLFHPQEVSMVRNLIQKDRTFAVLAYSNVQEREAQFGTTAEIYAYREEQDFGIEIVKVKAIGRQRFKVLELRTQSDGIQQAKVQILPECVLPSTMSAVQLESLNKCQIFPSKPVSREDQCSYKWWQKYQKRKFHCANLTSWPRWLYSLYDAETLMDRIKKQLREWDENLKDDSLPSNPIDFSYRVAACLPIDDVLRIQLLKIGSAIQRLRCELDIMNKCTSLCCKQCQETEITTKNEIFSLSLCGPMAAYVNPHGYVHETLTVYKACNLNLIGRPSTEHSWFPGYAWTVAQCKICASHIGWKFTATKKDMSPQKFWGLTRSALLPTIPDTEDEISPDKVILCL
T2 sequence (Q16531 whole entry partner): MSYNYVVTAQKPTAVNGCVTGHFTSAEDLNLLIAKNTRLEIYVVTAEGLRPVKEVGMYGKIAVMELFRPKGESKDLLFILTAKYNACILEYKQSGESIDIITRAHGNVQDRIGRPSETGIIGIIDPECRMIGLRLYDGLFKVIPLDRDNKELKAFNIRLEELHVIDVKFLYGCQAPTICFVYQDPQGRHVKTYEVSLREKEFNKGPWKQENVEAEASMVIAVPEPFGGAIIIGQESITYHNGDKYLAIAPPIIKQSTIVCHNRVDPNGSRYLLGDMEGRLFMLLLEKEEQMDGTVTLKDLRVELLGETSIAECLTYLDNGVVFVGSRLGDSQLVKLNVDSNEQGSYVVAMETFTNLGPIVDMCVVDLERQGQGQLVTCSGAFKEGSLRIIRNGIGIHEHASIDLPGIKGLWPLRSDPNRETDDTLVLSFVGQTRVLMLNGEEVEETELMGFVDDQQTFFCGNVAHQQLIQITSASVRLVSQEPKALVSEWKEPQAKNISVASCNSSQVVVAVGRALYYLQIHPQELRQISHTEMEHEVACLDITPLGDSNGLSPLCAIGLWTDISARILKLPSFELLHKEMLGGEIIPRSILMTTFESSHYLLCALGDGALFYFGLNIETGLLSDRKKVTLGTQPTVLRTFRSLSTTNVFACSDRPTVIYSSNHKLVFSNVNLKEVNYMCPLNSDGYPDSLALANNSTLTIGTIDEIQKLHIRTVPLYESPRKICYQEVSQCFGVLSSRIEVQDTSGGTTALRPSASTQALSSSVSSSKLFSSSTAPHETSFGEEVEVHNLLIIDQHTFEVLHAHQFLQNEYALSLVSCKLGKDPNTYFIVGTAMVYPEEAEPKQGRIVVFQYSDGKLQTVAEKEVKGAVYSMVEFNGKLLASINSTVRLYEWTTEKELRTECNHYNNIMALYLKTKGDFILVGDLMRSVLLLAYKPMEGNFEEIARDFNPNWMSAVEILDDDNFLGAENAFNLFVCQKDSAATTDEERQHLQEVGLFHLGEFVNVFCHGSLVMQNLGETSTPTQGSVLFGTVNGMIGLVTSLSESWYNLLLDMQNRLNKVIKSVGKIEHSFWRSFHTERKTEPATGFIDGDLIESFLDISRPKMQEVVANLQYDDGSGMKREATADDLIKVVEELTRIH
T1 sequence (O95785 whole entry): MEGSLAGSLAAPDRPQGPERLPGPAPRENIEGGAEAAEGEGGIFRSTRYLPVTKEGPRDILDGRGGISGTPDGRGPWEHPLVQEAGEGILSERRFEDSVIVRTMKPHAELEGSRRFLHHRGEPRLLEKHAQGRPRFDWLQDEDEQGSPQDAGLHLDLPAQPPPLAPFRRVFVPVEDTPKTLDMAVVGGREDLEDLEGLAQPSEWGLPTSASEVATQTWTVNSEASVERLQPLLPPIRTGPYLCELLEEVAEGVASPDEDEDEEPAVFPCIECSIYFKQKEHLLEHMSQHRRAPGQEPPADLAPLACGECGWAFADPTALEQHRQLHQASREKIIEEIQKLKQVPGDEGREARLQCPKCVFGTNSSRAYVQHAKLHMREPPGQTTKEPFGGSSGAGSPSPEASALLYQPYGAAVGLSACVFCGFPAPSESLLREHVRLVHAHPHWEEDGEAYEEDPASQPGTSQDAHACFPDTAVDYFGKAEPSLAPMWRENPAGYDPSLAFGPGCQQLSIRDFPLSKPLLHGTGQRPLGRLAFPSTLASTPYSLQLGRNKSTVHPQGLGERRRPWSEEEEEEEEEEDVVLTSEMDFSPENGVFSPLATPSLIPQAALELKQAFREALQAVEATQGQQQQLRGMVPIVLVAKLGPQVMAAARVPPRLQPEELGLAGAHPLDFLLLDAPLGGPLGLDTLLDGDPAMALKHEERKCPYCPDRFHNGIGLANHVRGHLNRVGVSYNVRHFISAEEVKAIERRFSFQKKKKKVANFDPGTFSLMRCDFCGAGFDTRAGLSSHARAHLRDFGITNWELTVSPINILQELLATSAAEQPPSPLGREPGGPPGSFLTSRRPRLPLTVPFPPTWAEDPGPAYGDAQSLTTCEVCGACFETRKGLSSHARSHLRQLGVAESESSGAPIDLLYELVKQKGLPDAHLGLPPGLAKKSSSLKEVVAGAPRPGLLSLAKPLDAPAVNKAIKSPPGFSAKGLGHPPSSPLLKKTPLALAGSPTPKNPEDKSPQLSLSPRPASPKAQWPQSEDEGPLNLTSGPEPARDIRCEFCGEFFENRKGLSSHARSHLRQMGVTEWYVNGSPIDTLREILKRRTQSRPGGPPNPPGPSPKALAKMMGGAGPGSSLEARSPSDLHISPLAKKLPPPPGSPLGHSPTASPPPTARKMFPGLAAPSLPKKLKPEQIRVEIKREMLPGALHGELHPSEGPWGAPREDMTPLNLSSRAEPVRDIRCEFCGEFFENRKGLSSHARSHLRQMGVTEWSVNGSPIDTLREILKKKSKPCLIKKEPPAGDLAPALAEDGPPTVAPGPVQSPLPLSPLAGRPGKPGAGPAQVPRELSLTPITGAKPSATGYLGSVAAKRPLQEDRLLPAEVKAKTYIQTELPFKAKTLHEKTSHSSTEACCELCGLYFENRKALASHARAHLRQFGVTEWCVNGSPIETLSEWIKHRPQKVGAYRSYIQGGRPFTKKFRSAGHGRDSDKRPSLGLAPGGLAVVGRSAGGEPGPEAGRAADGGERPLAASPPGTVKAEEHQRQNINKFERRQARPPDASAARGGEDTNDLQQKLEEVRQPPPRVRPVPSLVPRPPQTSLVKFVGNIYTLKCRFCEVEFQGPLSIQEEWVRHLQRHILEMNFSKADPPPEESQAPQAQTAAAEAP
T1 sequence (Q96SW2 whole entry): as the sequence (Q96SW2 whole entry) above
T1 sequence (Q16531 whole entry partner): as the sequence (Q16531 whole entry partner) above

Row | Compound | HBF AUC (HbF) | DC50 (WIZ) [nM] | DC50 (ZBTB7A) [nM]
1 | CC[C@@H]1Oc2cc(-c3ccnc(C)c3)c(Nc3cccc4c3C(=O)N([C@H]3CCC(=O)NC3=O)C4=O)cc2N(C)C1=O [Compound 20, 2-((S)-2,6-dioxopiperidin-3-yl)-4-(((S)-2-ethyl-4-methyl-7-(2-methylpyridin-4-yl)-3-oxo-3,4-dihydro-2H-benzo[b][1,4]oxazin-6-yl)amino)isoindoline-1,3-dione] | + (+ = 15 ≤ AUC < 100) | 14 | 12
2 | CO[C@H]1CC[C@@H](c2cc3c(cc2Nc2cccc4c2C(=O)N(C2CCC(=O)NC2=O)C4=O)N(C)C(=O)CC3)CC1 (some centres unmarked) [Compound 92, 2-(2,6-dioxopiperidin-3-yl)-4-((6-((1s,4s)-4-methoxycyclohexyl)-1-methyl-2-oxo-1,2,3,4-tetrahydroquinolin-7-yl)amino)isoindoline-1,3-dione] | + (+ = 15 ≤ AUC < 100) | 2 | 3
3 | COc1cc(-c2cc3c(cc2Nc2cccc4c2C(=O)N([C@H]2CCC(=O)NC2=O)C4=O)N(C)C(=O)[C@H](C)O3)c(F)cn1 [Compound 29, 2-((S)-2,6-dioxopiperidin-3-yl)-4-(((S)-7-(5-fluoro-2-methoxypyridin-4-yl)-2,4-dimethyl-3-oxo-3,4-dihydro-2H-benzo[b][1,4]oxazin-6-yl)amino)isoindoline-1,3-dione] | + (+ = 15 ≤ AUC < 100) | 5 | 23
4 | Cc1cc(-c2cc3c(cc2Nc2cccc4c2C(=O)N([C@H]2CCC(=O)NC2=O)C4=O)N(C)[C@H](C)CO3)ccn1 [Compound 3, 4-(((R)-3,4-dimethyl-7-(2-methylpyridin-4-yl)-3,4-dihydro-2H-benzo[b][1,4]oxazin-6-yl)amino)-2-((S)-2,6-dioxopiperidin-3-yl)isoindoline-1,3-dione] | +++ (+++ = AUC ≥ 150) | 17 | 29
5 | Cc1cc(-c2c(Nc3cccc4c3C(=O)N([C@H]3CCC(=O)NC3=O)C4=O)cc3c(c2F)OCC(=O)N3C)c(F)cn1 [Compound 67, 2-((S)-2,6-dioxopiperidin-3-yl)-4-((8-fluoro-7-(5-fluoro-2-methylpyridin-4-yl)-4-methyl-3-oxo-3,4-dihydro-2H-benzo[b][1,4]oxazin-6-yl)amino)isoindoline-1,3-dione] | ++ (++ = 100 ≤ AUC < 150) | 17 | 25
6 | Cc1cc(-c2cc3c(cc2Nc2cccc4c2C(=O)N([C@H]2CCC(=O)NC2=O)C4=O)N(C2CC2)C(=O)CO3)ccn1 [Compound 26, (S)-4-((4-cyclopropyl-7-(2-methylpyridin-4-yl)-3-oxo-3,4-dihydro-2H-benzo[b][1,4]oxazin-6-yl)amino)-2-(2,6-dioxopiperidin-3-yl)isoindoline-1,3-dione] | ++ (++ = 100 ≤ AUC < 150) | 13 | 98
7 | Cc1cc(-c2cc3c(cc2Nc2cccc4c2C(=O)N([C@H]2CCC(=O)NC2=O)C4=O)N(C)C(=O)[C@@H](C)O3)ccn1 [Compound 6, 4-(((R)-2,4-dimethyl-7-(2-methylpyridin-4-yl)-3-oxo-3,4-dihydro-2H-benzo[b][1,4]oxazin-6-yl)amino)-2-((S)-2,6-dioxopiperidin-3-yl)isoindoline-1,3-dione] | + (+ = 15 ≤ AUC < 100) | 9 | 49
8 | CNc1cc(-c2cc3c(cc2Nc2cccc4c2C(=O)N(C2CCC(=O)NC2=O)C4=O)N(C)C(=O)CO3)c(F)cn1 (centres unmarked) [Compound 60, 2-(2,6-dioxopiperidin-3-yl)-4-((7-(5-fluoro-2-(methylamino)pyridin-4-yl)-4-methyl-3-oxo-3,4-dihydro-2H-benzo[b][1,4]oxazin-6-yl)amino)isoindoline-1,3-dione] | +++ (+++ = AUC ≥ 150) | 9 | 11
9 | CCO[C@H]1CC[C@H](c2cc3c(cc2Nc2cccc4c2C(=O)N([C@H]2CCC(=O)NC2=O)C4=O)N(C)C(=O)[C@H](C)O3)CC1 [Compound 46, 2-((S)-2,6-dioxopiperidin-3-yl)-4-(((S)-7-((1r,4S)-4-ethoxycyclohexyl)-2,4-dimethyl-3-oxo-3,4-dihydro-2H-benzo[b][1,4]oxazin-6-yl)amino)isoindoline-1,3-dione] | ++ (++ = 100 ≤ AUC < 150) | 2 | 7
10 | Cc1cc(-c2c(Nc3cccc4c3C(=O)N(C3CCC(=O)NC3=O)C4=O)cc3c(c2F)OCC(=O)N3C)ccn1 (centres unmarked) [Compound 80, 2-(2,6-dioxopiperidin-3-yl)-4-((8-fluoro-4-methyl-7-(2-methylpyridin-4-yl)-3-oxo-3,4-dihydro-2H-benzo[b][1,4]oxazin-6-yl)amino)isoindoline-1,3-dione] | ++ (++ = 100 ≤ AUC < 150) | 29 | 38
11 | CN1C(=O)COc2cc(-c3ccnc(C(F)F)c3)c(Nc3cccc4c3C(=O)N([C@H]3CCC(=O)NC3=O)C4=O)cc21 [Compound 9, (S)-4-((7-(2-(difluoromethyl)pyridin-4-yl)-4-methyl-3-oxo-3,4-dihydro-2H-benzo[b][1,4]oxazin-6-yl)amino)-2-(2,6-dioxopiperidin-3-yl)isoindoline-1,3-dione] | + (+ = 15 ≤ AUC < 100) | 24 | 32
12 | Cc1cc(-c2cc3c(cc2Nc2cccc4c2C(=O)N(C2CCC(=O)NC2=O)C4=O)N(C)C(=O)C(C)(C)C3)ccn1 (centres unmarked) [Compound 85, 2-(2,6-dioxopiperidin-3-yl)-4-((1,3,3-trimethyl-6-(2-methylpyridin-4-yl)-2-oxo-1,2,3,4-tetrahydroquinolin-7-yl)amino)isoindoline-1,3-dione] | – | 26 | 43
